Source: patent US5879942A, “Processing enzyme for polypeptide” (Kabushiki Kaisha Hayashibara Seibutsu Kagaku Kenkyujo, priority 1996, dated 1999)

Biological target: T1, the present enzyme (Homo sapiens, UniProt P29466)
T1 construct: Using the anti-human ICE-p20 antibody and the antihuman ICE-p10 antibody; endogenous in cells
T1 sequence (P29466 120-297 limits assumed): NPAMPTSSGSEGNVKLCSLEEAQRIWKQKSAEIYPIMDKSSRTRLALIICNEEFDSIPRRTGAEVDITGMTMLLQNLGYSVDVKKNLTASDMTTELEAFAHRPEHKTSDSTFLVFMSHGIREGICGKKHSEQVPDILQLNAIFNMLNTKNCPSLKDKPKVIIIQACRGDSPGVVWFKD
T1 sequence (P29466 317-404 limits assumed): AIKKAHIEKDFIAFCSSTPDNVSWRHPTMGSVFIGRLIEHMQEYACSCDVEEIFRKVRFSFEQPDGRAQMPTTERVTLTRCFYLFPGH
Experiment: Activity of inhibitory agent on enzyme: conversion of precursor, Western Blotting
Type: biochemical
Conditions: for band corresponding to the active form on Western Blotting: enzyme of Example 1 (THP-1 cells), 37° C. for 3 hours; for Inhibitory agent: enzyme obtainable from a human hematopoietic cell, general property; for enzyme activity inhibited: enzyme of Example 7 (HL-60 cells), methods in Examples 2-5
Method: A substrate solution was prepared by dissolving the precursor of the polypeptide in Example 4-1 in 100 mM Hepes buffer (pH 7.4), containing 10 v/v % glycerol, 0.1 w/v % CHAPS and 2 mM dithiothreitol, to give a concentration of 500 nM, and mixed with 350 units/ml of the enzyme solution in Example 1, followed by the incubation at 37° C. At 0 min, 10 min, 30 min, one hour, 3 hours, 6 hours and 18 hours after initiating the incubation, a portion of the reaction mixture was sampled at each sampling time and admixed with iodoacetamide to give a final concentration of 200 μg/ml to suspend the reaction. The Western Blotting method using the monoclonal antibody, as disclosed in Japanese Patent Application No.231,598/96 applied by the same applicant of the present invention, was applied to the reaction mixture to study the change on passage of time during the conversion of the precursor into the active form.
In the conversion method for precursor in Example 4-2, the present enzyme in Example 1 was admixed with 5 μM Ac-YVAD-CHO or 650 μM iodoacetamide and reacted at 37° C. for 3 hours.

Structure (SMILES)	band corresponding to the active form on Western Blotting (650 μM iodoacetamide)	Inhibitory agent	enzyme activity inhibited	band corresponding to the active form on Western Blotting (5 μM Ac-YVAD-CHO)
NC(=O)CI [iodoacetamide]	no band corresponding to the active form was detected	inhibited	inhibited	
CC(=O)N[C@@H](Cc1ccc(O)cc1)C(=O)N[C@H](C(=O)N[C@@H](C)C(=O)N[C@H](C=O)CC(=O)O)C(C)C [Ac-YVAD-CHO, acetyl-L-tyrosyl-L-varyl-L-alanyl-L-aspart-1-al]		inhibited	inhibited	no band corresponding to the active form was detected
